The source of these data is patent US11096942B2, “Heterocyclic compounds and uses thereof” (Celgene CAR LLC, priority 2010, dated 2021).

SMILES strings stand for the structures. A value given as a limit tells only on which side of the number the result lay.

Assay [1] has as its system H1975 cells (EGFR L858R/T790M). Kind of assay: Cell proliferation (CellTiter Glo, 72 hr), H1975 cells. Type of assay: cell-based, human. Conditions: proliferation, WT EGFR (A431) vs H1975. The protocol:
(§1) A431 human epidermoid carcinoma, H1975 human NSCLC and HCC827 human NSCLC adenocarcinoma cells were obtained from the American Type Culture Center (Manassas, Va.). A431 cells were grown in DMEM (Invitrogen, Carlsbad, Calif.) supplemented with 10% FBS (HyClone, South Logan, Utah) and 1% Penicillin-Streptomycin (P/S, Lonza, Walkersville, Md.).
(§2) Cells were plated in Growth Media supplemented with 5% FBS and 1% P/S at a density of 3,000 cells per well in 96 well tissue culture plates (Corning). […] Growth inhibition (GI50) values were determined by Graph Pad Prism.
(ATP-based viability assays read luminescence as a measure of living cells.)

Assay [2] addresses EGFR L858R/T790M (H1975 cells) (Homo sapiens (Human), UniProt P00533, L858R/T790M). Kind of assay: Phospho-EGFR signaling immunoblot (1 hr), H1975 cells. The assay is classed as cell-based. The note with it: WT EGFR (A431) vs H1975. As for the experimental part:
as §1
All primary antibodies were obtained from Cell Signaling (Danvers, Mass.) and used at 1:1000. Secondary antibodies were used at 1:10,000. Goat anti-mouse IgG IRDye 800CW antibody was obtained from LiCor Biosciences (Lincoln, Nebr.) and goat anti-rabbit IgG Alexa Fluor 680 was obtained from Invitrogen.
Cells were grown in 12-well plates (Corning, Coring, N.Y.) to 90% confluence and then incubated in low-serum (0.1% FBS) media for 16-18 hr. […] A431 cells were then stimulated with 50 ng/ml EGF (Peprotech, Rocky Hill, N.J.) for 15 min. After treatment, cell monolayers were washed with cold PBS (Invitrogen) and immediately lysed by scrapping into 60 uL cold Cell Extraction Buffer (Invitrogen) supplemented with Complete Protease inhibitors (Roche, Indianapolis, Ind.) and PhosphoSTOP (Roche) phosphatase inhibitors.
Phospho-protein signals were quantitated using Odyssey Infrared Imaging (Li-Cor Biosciences).
To assess phosphor-EGFR signaling, blots were probed with rabbit anti-Phospho-EGFR (Y1068) and mouse total anti-EGFR antibodies. Phospho-EGFR signal was normalized to total EGFR expression for each sample. […] Normalized data was fitted using a sigmoidal curve analysis program (Graph Pad Prism version 5) with variable Hill slope to determine the EC50 values.
On the technique in general: Immunoblotting shows a protein as a band on a membrane.

For assay [3], the system named is HCC827 cells (EGFR delE746-A750). Kind of assay: Cell proliferation (CellTiter Glo, 72 hr), HCC827 cells. Type of assay: cell-based, human. The note with it: proliferation, WT EGFR (A431) vs HCC827. As for the experimental part:
as §1, §2

As for `C=CC(=O)Nc1cccc(Nc2nc(Nc3ccc(N4CCN(C(C)=O)CC4)cc3OC)ncc2Cl)c1` [Compound I-8, N-(3-(2-(4-(4-acetylpiperazin-1-yl)-2-methoxyphenylamino)-5-chloropyrimidin-4-ylamino)phenyl)acrylamide], the “Ratio WT/mutant” value in assay [1] is listed as over 1; in assay [2], over 1; in assay [3], over 20.

As to `C=CC(=O)Nc1cccc(Oc2nc(Nc3ccc(N4CCN(C(=O)CO)CC4)cc3OC)ncc2C(F)(F)F)c1` [Compound I-11, N-(3-(2-(4-(4-(2-hydroxyacetyl)piperazin-1-yl)-2-methoxyphenylamino)-5-(trifluoromethyl)pyrimidin-4-yloxy)phenyl)acrylamide], the “Ratio WT/mutant” value in assay [1] is recorded as over 5; in assay [2], over 15; in assay [3] it was over 45.

On to `C=CC(=O)Nc1cccc(Nc2nc(Nc3ccc(N4CCN(C(=O)CO)CC4)cc3OC)ncc2Cl)c1` [Compound I-12, N-(3-(5-chloro-2-(4-(4-(2-hydroxyacetyl)piperazin-1-yl)-2-methoxyphenylamino)pyrimidin-4-ylamino)phenyl)acrylamide], for which the “Ratio WT/mutant” value in assay [1] is recorded as over 1; in assay [2], over 1; in assay [3], over 30.

`C=CC(=O)Nc1cccc(Oc2nc(Nc3ccc(N4CCN(C(=O)NC)CC4)cc3OC)ncc2C(F)(F)F)c1` [Compound I-21, 4-(4-(4-(3-acrylamidophenoxy)-5-(trifluoromethyl)pyrimidin-2-ylamino)-3-methoxyphenyl)-N-methylpiperazine-1-carboxamide]: the entries for the “Ratio WT/mutant” value in assay [1], in assay [2] and in assay [3] were over 1, over 5 and over 20, respectively.

With `C=CC(=O)Nc1cccc(Oc2nc(Nc3ccc(N4CCN(S(C)(=O)=O)CC4)cc3OC)ncc2C(F)(F)F)c1` [Compound I-22, N-(3-(2-(2-methoxy-4-(4-(methylsulfonyl)piperazin-1-yl)phenylamino)-5-(trifluoromethyl)pyrimidin-4-yloxy)phenyl)acrylamide], the “Ratio WT/mutant” value in assay [1] is over 10; in assay [2] it was over 35; in assay [3] it was over 35.

With `C=CC(=O)Nc1cccc(Oc2nc(Nc3ccc(N4CCN(S(C)(=O)=O)CC4)cc3OC)ncc2Cl)c1` [Compound I-26, N-(3-(5-chloro-2-(2-methoxy-4-(4-(methylsulfonyl)piperazin-1-yl)phenylamino)pyrimidin-4-yloxy)phenyl)acrylamide], the “Ratio WT/mutant” value is given as over 1 in assay [1], over 40 in assay [2] and over 35 in assay [3].

Turning to `C=CC(=O)Nc1cccc(Nc2nc(Nc3ccc(N4CCN(C(C)=O)CC4)cc3OC(F)(F)F)ncc2C(F)(F)F)c1` [Compound I-33, N-(3-(2-(4-(4-acetylpiperazin-1-yl)-2-(trifluoromethoxy)phenylamino)-5-(trifluoromethyl)pyrimidin-4-ylamino)phenyl)acrylamide], the “Ratio WT/mutant” value in assay [1] was over 30; in assay [2] it was over 50; in assay [3], over 15.

With `C=CC(=O)Nc1cccc(Nc2nc(Nc3ccc(N4CCN(C(=O)C(C)(C)C)CC4)cc3OC)ncc2C(F)(F)F)c1` [Compound I-34, N-(3-(2-(2-methoxy-4-(4-pivaloylpiperazin-1-yl)phenylamino)-5-(trifluoromethyl)pyrimidin-4-ylamino)phenyl)acrylamide], the results for the “Ratio WT/mutant” value in assay [1], in assay [2] and in assay [3] were over 5, over 35 and over 50, respectively.

Turning to `C=CC(=O)Nc1cccc(Nc2nc(Nc3ccc(N4CCN(C(C)=O)CC4)cc3OC)ncc2Br)c1` [Compound I-40, N-(3-(2-(4-(4-acetylpiperazin-1-yl)-2-methoxyphenylamino)-5-bromopyrimidin-4-ylamino)phenyl)acrylamide], the results for the “Ratio WT/mutant” value in assay [1], in assay [2] and in assay [3] were over 5, over 1 and over 10, respectively.
